In publication PMC9287337 (Scientific Reports, 2022):

B1: BMP4: BMP ligand used as comparator in the literature study (protein, UniProt P12644 293-408, looked up)
Bone morphogenetic protein 4: SPKHHSQRARKKNKNCRRHSLYVDFSDVGWNDWIVAPPGYQAFYCHGDCPFPLADHLNSTNHAIVQTLVNSVNSSIPKACCVPTELSAISMLYLDEYDKVVLKNYQEMVVEGCGCR
B2: BMP7: recombinant BMP family member (protein, UniProt P18075 293-431, looked up)
Bone morphogenetic protein 7: STGSKQRSQNRSKTPKNQEALRMANVAENSSSDQRQACKKHELYVSFRDLGWQDWIIAPEGYAAYYCEGECAFPLNSYMNATNHAIVQTLVHFINPETVPKPCCAPTQLNAISVLYFDDSSNVILKKYRNMVVRACGCH
B3: BMP6: recombinant BMP family member (protein, UniProt P22004 375-513, looked up)
Bone morphogenetic protein 6: SASSRRRQQSRNRSTQSQDVARVSSASDYNSSELKTACRKHELYVSFQDLGWQDWIIAPKGYAANYCDGECSFPLNAHMNATNHAIVQTLVHLMNPEYVPKPCCAPTKLNAISVLYFDDNSNVILKKYRNMVVRACGCH

What was measured:
C2C12 cells [1] = assay: Cell viability assay in presence or absence of Dorsomorphin; assay type: cell-based, mouse; conditions: 10 µM inhibitor, 24 h
Protocol: To resolve whether the SY-LB-35 or SY-LB-57 compound requires type I BMP receptor activity for the induction of cell viability in C2C12 cells, cell viability assays were carried out in the presence or absence of 10 µM DM.
C2C12 cells (100 µL) were seeded in a 96-well plate at 5 × 10^5 cells/mL and incubated overnight in complete growth media to achieve 80% confluency followed by serum-starvation for 16–18 h. […] For BMP receptor inhibition, cell viability assays were carried out in presence or absence of Dorsomorphin (DM; 10 µM; Sigma Aldrich, St. Louis, MO, USA), a non-selective inhibitor of type I BMP receptor activity.
(§1) Next, reagents from the RealTime-Glo™ MT Cell Viability Assay Kit (Promega, Madison, WI, USA) were diluted in SS medium and used according to manufacturer’s protocol. Cellular luminescence was measured using the FilterMax F5 Multi-mode Microplate Reader (Molecular Devices, San Jose, CA, USA). Data from three independent experiments with individual experiments carried out in triplicate was determined and reported as a percentage of control.

[2] = system: type I BMP receptor-dependent p-Smad; assay: Western blot of p-Smad in presence or absence of Dorsomorphin; assay type: cell-based, mouse; conditions: 10 µM inhibitor, compounds 1 µM, 30 min
Protocol: Total whole cell lysates were prepared and used for Western blot analysis of Smad phosphorylation using anti-p-Smad antibodies.
C2C12 cells (3 mL) were seeded into 35 mm dishes at 7.5 × 10^4 cells/mL in complete growth medium, incubated to reach 80% confluence and serum-starved for 16–18 h. […] Thereafter, the cultures were washed with ice-cold 1X TBS for 2 min. Lysis Buffer (Cell Signaling Technology, Danvers, MA, USA) supplemented with 1 mM PMSF (phenylmethylsulphonyl fluoride) was added to the cultures and whole cell lysates were prepared.
Laemmli sample buffer (4X) was added to the whole cell lysates (20 µg) to a final concentration of 1X and heated at 100 °C for 5 min. The samples were immediately cooled on ice for 5 min and centrifuged at 9500 rpm for 2 min at RT. The samples and the Precision Plus Protein Standard (5 µL; Bio-Rad, Hercules, CA, USA) were loaded on 12% SDS polyacrylamide gels. Protein was separated using the Bio-Rad Mini Protean II Gel Electrophoresis System at 135 V. Meanwhile, 0.2 µm nitrocellulose membranes were pre-incubated in cold 1X Transfer Buffer (10 mM Tris/2.5 mM glycine/20% methanol) for at least 30 min. Next, the separated proteins were transferred at 100 V onto the pre-equilibrated nitrocellulose membranes for 1 h in Transfer Buffer, followed by blocking in 5% BSA/0.1% Tween 20/1X TBS for 30 min. The membranes were incubated overnight at 4 °C with the desired primary rabbit monoclonal antibody (p-Smad1/5(S463/465)/9(S465/467), Smad1 (D5907) XP®, p-Akt (Ser473) (D9E) XP®, or Akt (pan) (C67E7), p-SAPK/JNK (Thr183/Tyr185), SAPK/JNK, β-actin (Cell Signaling Technologies, Danvers, MA, USA)) or rabbit polyclonal antibody (phospho-PI3 Kinase p85 (Tyr458)/p55 (Tyr199) antibody (Cell Signaling Technologies, Danvers, MA, USA), p-p38 MAPK, p38 MAPK, p-ERK1, ERK1/2) (Abclonal, Woburn, MA, USA)) in Antibody Dilution Buffer (1% BSA/0.1% Tween 20/1X TBS) and then washed with 1X TBST (0.1% Tween 20/1X TBS) three times for 15 min. HRP-conjugated Goat Anti-Rabbit IgG secondary antibody (Santa Cruz Biotechnology, Inc., Dallas, TX, USA) in Antibody Dilution Buffer was added to the membranes for 1 h at RT followed by three 15-min washes with 1X TBST. Finally, the blots were developed using SuperSignal ™ West Femto HRP Substrate solutions (Thermo Scientific, Rockford, IL, USA) and analysed using the Omega Lum™ G Imaging System (San Francisco, CA, USA). Quantification of chemiluminescent signals was carried out using ImageJ (Image Processing and Analysis in Java 1.8.0_112).

p-Smad = system: p-Smad; parameters: method as in PMID 30602563; conditions: 30-min stimulation assays; cited from earlier work
C2C12 cells [3] = assay: RealTime-Glo MT cell viability assay; assay type: cell-based, mouse; conditions: C2C12, 24 h, Supplemental Fig. S3
Protocol: To first determine how these novel compounds effect the health of C2C12 cells and to establish the range of subtoxic concentrations for future studies, cell viability assays were carried out. Serum-starved C2C12 cells were exposed to increasing concentrations (0.01–1000 µM) of SY-LB-35 and SY-LB-57 for 24 h. Exposure to Triton X-100 (125 µM) is toxic to cells and was used as a negative control for cell viability. Following the 24-h exposure period, the MT Cell viability substrate was added to the cultures. Only viable cells can reduce the substrate and, thereby, generate a luminescent signal. Any decrease in luminescence was considered an indication of cell death or toxicity.
C2C12 cells (100 µL) were seeded in a 96-well plate at 5 × 10^5 cells/mL and incubated overnight in complete growth media to achieve 80% confluency followed by serum-starvation for 16–18 h.
as §1

Molecule	Increase in p-Smad levels over control (p-Smad)	Effect on cell viability (C2C12 cells [3])	other results
c1cc(-c2cnn3cc(-c4ccc(OCCN5CCCCC5)cc4)cnc23)ccn1 [DM, Dorsomorphin, reference compound]	–	–	Effect of inhibitor on cell viability increases stimulated by SY-LB-35 and SY-LB-57 (C2C12 cells [1]): complete inhibition of the cell viability increases; Effect of inhibitor on p-Smad increase induced by SY-LB-35 and SY-LB-57 [2]: completely prevented the increase in p-Smad levels
Brc1ccc(CSc2nc3ccccc3o2)cc1 [sb4, reference compound]	twofold	–	–
BMP9: recombinant BMP family member	–	Increases in cell viability	–
B1	11 fold	–	–
B2	–	Increases in cell viability	–
B3	–	Increases in cell viability	–
